# Legend:
# HDAC-1 = target: T1, HDAC-1 (Homo sapiens, UniProt Q13547); experiment: HDAC Inhibition Assay (purified GST-HDAC protein); type: biochemical
# T1 construct: made in house; host or cells: Sf9 or Sf21 insect cells (baculovirus, donor vector pFB-GSTX3)
# Source text: The baculovirus donor vector pFB-GSTX3 is used to generate a recombinant baculovirus that expresses the HDAC polypeptide. Transfer vectors containing the HDAC coding region are transfected into the DH10Bac cell line (GIBCO) and plated on selective agar plates. Colonies without insertion of the fusion sequence into the viral genome (carried by the bacteria) are blue. Single, white colonies are picked and viral DNAs (bacmid) are isolated from the bacteria by standard plasmid purification procedures. Sf9 cells or Sf21 (American Type Culture Collection) cells are then transfected in […] flasks with the viral DNA using Cellfectin reagent.
# Virus-containing media is collected from the transfected cell culture and used for infection to increase its titer. Virus-containing media obtained after two rounds of infection is used for large-scale protein expression. For large-scale protein expression 100 cm^2 round tissue culture plates are seeded with 5×10^7 cells/plate and infected with 1 mL of virus-containing media (at an approximately MOI of 5). After 3 days, the cells are scraped off the plate and centrifuged at 500 rpm for 5 minutes. Cell pellets from 10-20, 100 cm^2 plates, are re-suspended in 50 mL of ice-cold lysis buffer (25 mM tris-HCl, pH 7.5, 2 mM EDTA, 1% NP-40, 1 mM DTT, 1 mM P MSF). The cells are stirred on ice for 15 minutes and then centrifuged at 5,000 rpms for 20 minutes.
# The centrifuged cell lysate is loaded onto a 2 mL glutathione-sepharose column (Pharmacia) and is washed thrice with 10 mL of 25 mM tris-HCl, pH 7.5, 2 mM EDTA, 1 mM DTT, 200 mM NaCl. The GST-tagged proteins are then eluted by 10 applications (1 mL each) of 25 mM tris-HCl, pH 7.5, 10 mM reduced-glutathione, 100 mM NaCl, 1 mM DTT, 10% glycerol and stored at −70° C.
# HDAC assays with purified GST-HDAC protein are carried out in a final volume of 30 μL containing 15 ng of GST-HDAC protein, 20 mM tris-HCl, pH 7.5, 1 mM MnCl2, 10 mM MgCl2, 1 mM DTT, 3 μg/mL poly(Glu,Tyr) 4:1, 1% DMSO, 2.0 μM ATP (γ-[^33P]-ATP 0.1 μCi). The activity is assayed in the presence or absence of inhibitors. The assay is carried out in 96-well plates at ambient temperature for 15 minutes under conditions described below and terminated by the addition of 20 μL of 125 mM EDTA. Subsequently, 40 μL of the reaction mixture are transferred onto EMMOBILON-PVDF membrane (Millipore) previously soaked for 5 minutes with methanol, rinsed with water, then soaked for 5 minutes with 0.5% H3PO4 and mounted on vacuum manifold with disconnected vacuum source. After spotting all samples, a vacuum is connected and each well-rinsed with 200 μL 0.5% H3PO4. Membranes are removed and washed four times on a shaker with 1.0% H3PO4, once with ethanol. Membranes are counted after drying at ambient temperature, mounting in Packard TopCount 96-well frame, and addition of 10 μL/well of MICROSCINT™ (Packard). IC50 values are calculated by linear regression analysis of the percentage inhibition of each compound in duplicate, at 4 concentrations (usually 0.01, 0.1, 1 and 10 μM).
# • Input: 3×4 μL stopped assay on IMMOBILON membrane, not washed • Background (3 wells): assay with H2O instead of enzyme • Positive control (4 wells): 3% DMSO instead of compound • Bath control (1 well): no reaction mix
# IC50 values are calculated by logarithmic regression analysis of the percentage inhibition of each compound at 4 concentrations (usually 3- or 10-fold dilution series starting at 10 μM). In each experiment, the actual inhibition by reference compound is used for normalization of IC50 values to the basis of an average value of the reference inhibitor:
# Normalized IC50=measured IC50 average ref. IC50/measured ref. IC50
# HCT116 = HCT116 IC50 (Table 2, no method described); type: cell-based; settings: Homo sapiens, HCT-116
# T1 sequence (Q13547 whole entry, species assumed): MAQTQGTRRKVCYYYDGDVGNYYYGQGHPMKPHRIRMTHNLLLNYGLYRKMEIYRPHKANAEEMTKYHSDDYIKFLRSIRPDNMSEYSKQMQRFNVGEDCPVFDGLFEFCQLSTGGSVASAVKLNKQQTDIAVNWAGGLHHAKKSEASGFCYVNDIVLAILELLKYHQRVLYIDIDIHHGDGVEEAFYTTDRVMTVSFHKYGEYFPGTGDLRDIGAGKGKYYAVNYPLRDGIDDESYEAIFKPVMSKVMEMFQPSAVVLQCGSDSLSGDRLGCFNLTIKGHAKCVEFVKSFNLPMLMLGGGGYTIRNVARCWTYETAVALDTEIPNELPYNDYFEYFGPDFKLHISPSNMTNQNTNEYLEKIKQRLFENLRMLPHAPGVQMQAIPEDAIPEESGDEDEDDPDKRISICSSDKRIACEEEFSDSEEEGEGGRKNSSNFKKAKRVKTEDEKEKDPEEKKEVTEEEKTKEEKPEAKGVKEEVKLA
SMILES,IC50 (HDAC-1) [nM],IC50 (HCT116) [nM]
"O=C(/C=C/c1ccc(CN2CCC[C@H]2Cc2c[nH]c3ccccc23)c(F)c1)NO [Cpd 8, (E)-3-{3-Fluoro-4-[(S)-2-(1H-indol-3-ylmethyl)-pyrrolidin-1-ylmethyl]-phenyl}-N-hydroxy-acrylamide]",10,83
"Cc1[nH]c2ccccc2c1C[C@H]1CCCN1Cc1ccc(/C=C/C(=O)NO)cn1 [Cpd 26, (E)-N-Hydroxy-3-{6-[(R)-2-(2-methyl-1H-indol-3-ylmethyl)-pyrrolidin-1-ylmethyl]-pyridin-3-yl}-acrylamide]",1.7,
"O=C(/C=C/c1ccc(CN2CCC[C@@H]2Cc2nc(-c3ccccc3)no2)cc1)NO [Cpd 39, (E)-N-Hydroxy-3-{4-[(R)-2-(3-phenyl-[1,2,4]oxadiazol-5-ylmethyl)-pyrrolidin-1-ylmethyl]-phenyl}-acrylamide]",20,
"O=C(/C=C/c1ccc(CN2C[C@H](O)C[C@@H]2Cc2c[nH]c3ccccc23)cc1)NO [Cpd 23, (E)-N-Hydroxy-3-{4-[(2S,4R)-4-hydroxy-2-(1H-indol-3-ylmethyl)-pyrrolidin-1-ylmethyl]-phenyl}-acrylamide]",1.7,8
"Cc1[nH]c2ccccc2c1C[C@H]1CCCN1Cc1ccc(/C=C/C(=O)NO)cc1 [Cpd 4, (E)-N-Hydroxy-3-{4-[(R)-2-(2-methyl-1H-indol-3-ylmethyl)-pyrrolidin-1-ylmethyl]-phenyl}-acrylamide]",0.65,0.4
"O=C(/C=C/c1ccc(CN2CCCC2Cc2cccnc2)cc1)NO (centres unmarked) [Cpd 6, (E)-N-Hydroxy-3-[4-(2-pyridin-3-ylmethyl-pyrrolidin-1-ylmethyl)-phenyl]-acrylamide]",5,
"Cc1[nH]c2ccccc2c1C[C@H]1C[C@H](O)CN1Cc1ccc(/C=C/C(=O)NO)cn1 [Cpd 28, (E)-N-Hydroxy-3-{6-[(2S,4S)-4-hydroxy-2-(2-methyl-1H-indol-3-ylmethyl)-pyrrolidin-1-ylmethyl]-pyridin-3-yl}-acrylamide]",1.7,
"O=C(/C=C/c1ccc(CN2CCC[C@@H]2Cn2nc(C(F)(F)F)cc2C(F)(F)F)cc1)NO [Cpd 51, (E)-3-{4-[(R)-2-(3,5-Bis-trifluoromethyl-pyrazol-1-ylmethyl)-pyrrolidin-1-ylmethyl]-phenyl}-N-hydroxy-acrylamide]",39,31
"O=C(/C=C/c1ccc(CN2CCC[C@@H]2C(=O)N2CCc3ccccc32)cc1)NO [Cpd 17, (E)-3-{4-[(R)-2-(2,3-Dihydro-indole-1-carbonyl)-pyrrolidin-1-ylmethyl]-phenyl}-N-hydroxy-acrylamide]",210,950
"O=C(/C=C/c1ccc(CN2CCC[C@H]2Cc2c[nH]c3ccccc23)cc1)NO [Cpd 1, (E)-N-Hydroxy-3-{4-[(S)-2-(1H-indol-3-ylmethyl)-pyrrolidin-1-ylmethyl]-phenyl}-acrylamide]",10,100
"Cc1[nH]c2ccccc2c1C[C@H]1C[C@@H](O)CN1Cc1ccc(/C=C/C(=O)NO)cc1 [Cpd 20, (E)-N-Hydroxy-3-{4-[(2S,4R)-4-hydroxy-2-(2-methyl-1H-indol-3-ylmethyl)-pyrrolidin-1-ylmethyl]-phenyl}-acrylamide]",0.6,1
"CO[C@@H]1C[C@H](Cc2c(C)[nH]c3ccccc23)N(Cc2ccc(/C=C/C(=O)NO)cc2)C1 [Cpd 24, (E)-N-Hydroxy-3-{4-[(2S,4R)-4-methoxy-2-(2-methyl-1H-indol-3-ylmethyl)-pyrrolidin-1-ylmethyl]-phenyl}-acrylamide]",1.2,0.5
"O=C(/C=C/c1ccc(CN2C[C@@H](O)C[C@@H]2Cc2c[nH]c3ccccc23)cc1)NO [Cpd 22, (E)-N-Hydroxy-3-{4-[(2S,4S)-4-hydroxy-2-(1H-indol-3-ylmethyl)-pyrrolidin-1-ylmethyl]-phenyl}-acrylamide]",0.45,4
"CC(C)CC1CCCN1Cc1ccc(/C=C/C(=O)NO)cc1 (centres unmarked) [Cpd 5, (E)-N-Hydroxy-3-[4-(2-isobutyl-pyrrolidin-1-ylmethyl)-phenyl]-acrylamide]",8,
"Cc1[nH]c2ccccc2c1C[C@H]1CCCN1Cc1ccc(/C=C/C(=O)NO)cc1F [Cpd 10, (E)-3-{3-Fluoro-4-[(R)-2-(2-methyl-1H-indol-3-ylmethyl)-pyrrolidin-1-ylmethyl]-phenyl}-N-hydroxy-acrylamide]",0.7,0.6
"Cc1nn(-c2ccccc2)c(C)c1C[C@H]1C[C@H](O)CN1Cc1ccc(/C=C/C(=O)NO)cc1 [Cpd 33, (E)-3-{4-[(2S,4S)-2-(3,5-Dimethyl-1-phenyl-1H-pyrazol-4-ylmethyl)-4-hydroxy-pyrrolidin-1-ylmethyl]-phenyl}-N-hydroxy-acrylamide]",0.7,
"O=C(/C=C/c1ccc(CN2C[C@H](O)C[C@@H]2Cn2cc(-c3cccnc3)nn2)cc1)NO [Cpd 41, (E)-N-Hydroxy-3-{4-[(2R,4R)-4-hydroxy-2-(4-pyridin-3-yl-[1,2,3]triazol-1-ylmethyl)-pyrrolidin-1-ylmethyl]-phenyl}-acrylamide]",170,
"CO[C@H]1C[C@H](Cc2c(C)[nH]c3ccccc23)N(Cc2ccc(/C=C/C(=O)NO)cc2)C1 [Cpd 25, (E)-N-Hydroxy-3-{4-[(2S,4S)-4-methoxy-2-(2-methyl-1H-indol-3-ylmethyl)-pyrrolidin-1-ylmethyl]-phenyl}-acrylamide]",1.2,0.4
"Cc1nn(C)c(C)c1C[C@H]1C[C@H](O)CN1Cc1ccc(/C=C/C(=O)NO)cc1 [Cpd 31, (E)-N-Hydroxy-3-{4-[(2S,4S)-4-hydroxy-2-(1,3,5-trimethyl-1H-pyrazol-4-ylmethyl)-pyrrolidin-1-ylmethyl]-phenyl}-acrylamide]",2,16
"CC(c1ccc(/C=C/C(=O)NO)cc1)N1CCC[C@H]1CN1CCCC1 (stereo partly drawn) [Cpd 16, (E)-N-Hydroxy-3-{4-[1-((S)-2-pyrrolidin-1-ylmethyl-pyrrolidin-1-yl)-ethyl]-phenyl}-acrylamide]",380,
"O=C(/C=C/c1ccc(CN2C[C@H](O)C[C@@H]2Cn2nc(C(F)(F)F)cc2C(F)(F)F)cc1)NO [Cpd 52, (E)-3-{4-[(2R,4R)-2-(3,5-Bis-trifluoromethyl-pyrazol-1-ylmethyl)-4-hydroxy-pyrrolidin-1-ylmethyl]-phenyl}-N-hydroxy-acrylamide]",37,52
"O=C(/C=C/c1ccc(CN2CCC[C@H]2CN2CCc3ccccc32)cc1)NO [Cpd 19, (E)-3-{4-[(S)-2-(2,3-Dihydro-indol-1-ylmethyl)-pyrrolidin-1-ylmethyl]-phenyl}-N-hydroxy-acrylamide]",36,100
"O=C(/C=C/c1ccc(CN2CCC[C@@H]2C(=O)c2c[nH]c3ccccc23)cc1)NO [Cpd 12, (E)-N-Hydroxy-3-{4-[(R)-2-(1H-indole-3-carbonyl)-pyrrolidin-1-ylmethyl]-phenyl}-acrylamide]",38,520
"O=C(/C=C/c1ccc(CN2CCC[C@@H]2Cn2cccn2)cc1)NO [Cpd 49, (E)-N-Hydroxy-3-[4-((R)-2-pyrazol-1-ylmethyl-pyrrolidin-1-ylmethyl)-phenyl]-acrylamide]",15,26
"Cc1nn(-c2ccccc2)c(C)c1C(O)[C@H]1C[C@H](O)CN1Cc1ccc(/C=C/C(=O)NO)cc1 (stereo partly drawn) [Cpd 34, (E)-3-(4-{(2R,4S)-2-[(3,5-Dimethyl-1-phenyl-1H-pyrazol-4-yl)-hydroxy-methyl]-4-hydroxy-pyrrolidin-1-ylmethyl}-phenyl)-N-hydroxy-acrylamide]",27,

# Source: patent publication US20110060009A1, “Hydroxamate-Based Inhibitors of Deacetylases” (NOVARTIS AG, priority 2009, published 2011)
